Results: article PMC5218480 (PLoS ONE, 2017)

Test system: MV-4-11 cells
Assay: Gene expression microarray analysis (Affymetrix PrimeView) and GSEA
Type: cell-based, human
Set-up: RFU PODN (11730768_x_at) / Fold change /veh PODN (11730768_x_at) / RFU LINC00158 (11744669_a_at) / Fold change /veh LINC00158 (11744669_a_at) / RFU DUSP10 (11751237_a_at) / Fold change /veh DUSP10 (11751237_a_at) / RFU ID3 (11757404_x_at) / Fold change /veh ID3 (11757404_x_at) / RFU PLEKHG5 (11737974_s_at) / Fold change /veh PLEKHG5 (11737974_s_at) / RFU LRRC4B (11730491_at) / Fold change /veh LRRC4B (11730491_at) / RFU GIMAP4 (11747438_a_at) / Fold change /veh GIMAP4 (11747438_a_at) / RFU KRT8 (11758183_x_at) / Fold change /veh KRT8 (11758183_x_at) / RFU CNN1 (11734310_a_at) / Fold change /veh CNN1 (11734310_a_at) / RFU VPS37D (11726825_at) / Fold change /veh VPS37D (11726825_at) / RFU C10orf10 (11716522_x_at) / Fold change /veh C10orf10 (11716522_x_at) / RFU KIR2DL2 /// KIR2DL4 /// KIR2DL5A /// KIR2DL5B /// KIR2DS1 /// KIR2DS2 /// KIR2DS3 /// KIR2DS4 /// KIR3DL3 /// KIR3DL3 /// KIR3DS1 (11738374_at) / Fold change /veh KIR2DL2 /// KIR2DL4 /// KIR2DL5A /// KIR2DL5B /// KIR2DS1 /// KIR2DS2 /// KIR2DS3 /// KIR2DS4 /// KIR3DL3 /// KIR3DL3 /// KIR3DS1 (11738374_at) / RFU C1QL1 (11718748_at) / Fold change /veh C1QL1 (11718748_at) / RFU TMPRSS4 (11747572_a_at) / Fold change /veh TMPRSS4 (11747572_a_at) / RFU HAMP (11756126_x_at) / Fold change /veh HAMP (11756126_x_at) / RFU RNFT2 (11725882_a_at) / Fold change /veh RNFT2 (11725882_a_at) / RFU NR4A2 (11747474_a_at) / Fold change /veh NR4A2 (11747474_a_at) / RFU ABCC12 (11746883_a_at) / Fold change /veh ABCC12 (11746883_a_at) / RFU TMEM136 (11760407_x_at) / Fold change /veh TMEM136 (11760407_x_at) / RFU CLDN22 /// WWC2 (11732394_at) / Fold change /veh CLDN22 /// WWC2 (11732394_at) / RFU HLA-DPB1 (11760878_x_at) / Fold change /veh HLA-DPB1 (11760878_x_at) / RFU SPINT1 (11716480_a_at) / Fold change /veh SPINT1 (11716480_a_at) / RFU GAP43 (11754022_s_at) / Fold change /veh GAP43 (11754022_s_at) / RFU A4GNT (11735810_at) / Fold change /veh A4GNT (11735810_at) / RFU PRB3 (11715151_x_at) / Fold change /veh PRB3 (11715151_x_at) / RFU TUBB4B (11761932_at) / Fold change /veh TUBB4B (11761932_at) / RFU CAPN14 (11732068_a_at) / Fold change /veh CAPN14 (11732068_a_at) / RFU TMCC2 (11721928_a_at) / Fold change /veh TMCC2 (11721928_a_at) / RFU IRGQ (11745062_a_at) / Fold change /veh IRGQ (11745062_a_at) / RFU FAM174B (11720279_a_at) / Fold change /veh FAM174B (11720279_a_at) / RFU TMPRSS4 (11748680_a_at) / Fold change /veh TMPRSS4 (11748680_a_at) / RFU FAM212B (11763350_a_at) / Fold change /veh FAM212B (11763350_a_at) / RFU PLEKHG5 (11743358_a_at) / Fold change /veh PLEKHG5 (11743358_a_at) / RFU ZSCAN30 (11745921_a_at) / Fold change /veh ZSCAN30 (11745921_a_at) / RFU CMKLR1 (11741424_a_at) / Fold change /veh CMKLR1 (11741424_a_at) / RFU LOC101060620 /// MAPK8IP1 (11723275_at) / Fold change /veh LOC101060620 /// MAPK8IP1 (11723275_at) / RFU SPTSSB (11747773_x_at) / Fold change /veh SPTSSB (11747773_x_at) / RFU PRSS12 (11739890_at) / Fold change /veh PRSS12 (11739890_at) / RFU BIN1 (11741810_x_at) / Fold change /veh BIN1 (11741810_x_at) / RFU WNT11 (11732464_a_at) / Fold change /veh WNT11 (11732464_a_at) / RFU C10orf10 (11716521_a_at) / Fold change /veh C10orf10 (11716521_a_at) / RFU C5orf56 (11738089_at) / Fold change /veh C5orf56 (11738089_at) / RFU CYB561 (11721691_x_at) / Fold change /veh CYB561 (11721691_x_at) / RFU ANKRD19P (11752326_a_at) / Fold change /veh ANKRD19P (11752326_a_at) / RFU OR2T12 /// OR2T33 /// OR2T8 (11738714_s_at) / Fold change /veh OR2T12 /// OR2T33 /// OR2T8 (11738714_s_at) / RFU VCAN (11748164_a_at) / Fold change /veh VCAN (11748164_a_at) / RFU JSRP1 (11732532_at) / Fold change /veh JSRP1 (11732532_at) / RFU KRTAP10-11 (11738290_x_at) / Fold change /veh KRTAP10-11 (11738290_x_at) / RFU MYO3A (11730013_a_at) / Fold change /veh MYO3A (11730013_a_at) / RFU EBF3 (11725865_a_at) / Fold change /veh EBF3 (11725865_a_at) / RFU CAMK2N1 (11719241_x_at) / Fold change /veh CAMK2N1 (11719241_x_at) / RFU C5orf56 (11738088_a_at) / Fold change /veh C5orf56 (11738088_a_at) / RFU OLFML3 (11715873_a_at) / Fold change /veh OLFML3 (11715873_a_at) / RFU LOC100653217 /// NTM (11731650_a_at) / Fold change /veh LOC100653217 /// NTM (11731650_a_at) / RFU MAPK11 (11762145_a_at) / Fold change /veh MAPK11 (11762145_a_at) / RFU FIZ1 (11724087_x_at) / Fold change /veh FIZ1 (11724087_x_at) / RFU OASL (11726364_x_at) / Fold change /veh OASL (11726364_x_at) / RFU SOX15 (11748057_x_at) / Fold change /veh SOX15 (11748057_x_at) / RFU CD79A (11719716_a_at) / Fold change /veh CD79A (11719716_a_at) / RFU HIST1H1D (11736915_at) / Fold change /veh HIST1H1D (11736915_at) / RFU CASKIN2 (11723855_a_at) / Fold change /veh CASKIN2 (11723855_a_at) / RFU LOC730098 (11760151_x_at) / Fold change /veh LOC730098 (11760151_x_at) / RFU OR4N2 (11742367_at) / Fold change /veh OR4N2 (11742367_at) / RFU PRRT2 (11749266_a_at) / Fold change /veh PRRT2 (11749266_a_at) / RFU SNX32 (11753110_a_at) / Fold change /veh SNX32 (11753110_a_at) / RFU CDHR5 (11726645_a_at) / Fold change /veh CDHR5 (11726645_a_at) / RFU RCAN1 (11760418_a_at) / Fold change /veh RCAN1 (11760418_a_at) / RFU FAM167A (11723789_a_at) / Fold change /veh FAM167A (11723789_a_at) / RFU FAM26E (11764081_at) / Fold change /veh FAM26E (11764081_at) / RFU ISYNA1 (11749810_s_at) / Fold change /veh ISYNA1 (11749810_s_at) / RFU ACY1 (11761880_at) / Fold change /veh ACY1 (11761880_at) / RFU 11764098_at / Fold change /veh 11764098_at / RFU SAMD14 (11745864_x_at) / Fold change /veh SAMD14 (11745864_x_at) / RFU NPB (11741838_a_at) / Fold change /veh NPB (11741838_a_at) / RFU TMPRSS6 (11731388_a_at) / Fold change /veh TMPRSS6 (11731388_a_at) / RFU KRTAP10-2 (11738614_at) / Fold change /veh KRTAP10-2 (11738614_at) / RFU ARHGAP8 /// PRR5-ARHGAP8 (11727945_x_at) / Fold change /veh ARHGAP8 /// PRR5-ARHGAP8 (11727945_x_at) / RFU KRTAP5-7 /// NADSYN1 (11734609_at) / Fold change /veh KRTAP5-7 /// NADSYN1 (11734609_at) / RFU RASL12 (11751679_a_at) / Fold change /veh RASL12 (11751679_a_at) / RFU CDKN2B (11736163_a_at) / Fold change /veh CDKN2B (11736163_a_at) / RFU PRF1 (11729649_at) / Fold change /veh PRF1 (11729649_at) / RFU, ZNF638 /// ZNF638-IT1 / Fold change vs veh, ZNF638 /// ZNF638-IT1 / RFU, PANK3 / Fold change vs veh, PANK3 / RFU, SH3YL1 / Fold change vs veh, SH3YL1 / RFU, ZEB2 / Fold change vs veh, ZEB2 / RFU, NRIP1 / Fold change vs veh, NRIP1 / RFU, PTTG1IP / Fold change vs veh, PTTG1IP / RFU, CAPN2 / Fold change vs veh, CAPN2 / RFU, MED14 / Fold change vs veh, MED14 / RFU, SNORA58 / Fold change vs veh, SNORA58 / RFU, C1orf63 / Fold change vs veh, C1orf63 / RFU, LRRFIP1 / Fold change vs veh, LRRFIP1 / RFU, NDUFAF7 / Fold change vs veh, NDUFAF7 / RFU, SLC12A2 / Fold change vs veh, SLC12A2 / RFU, IBTK / Fold change vs veh, IBTK / RFU, ESF1 / Fold change vs veh, ESF1 / Fold change vs veh, TMEM50B / RFU, TAOK1 / Fold change vs veh, TAOK1 / RFU, ACBD3 / Fold change vs veh, ACBD3 / RFU, TMA16 / Fold change vs veh, TMA16 / RFU, RWDD3 / Fold change vs veh, RWDD3 / RFU, BCAT1 / Fold change vs veh, BCAT1 / RFU, EDEM3 / Fold change vs veh, EDEM3 / RFU, TMEM33 / Fold change vs veh, TMEM33 / RFU, WDR75 / Fold change vs veh, WDR75 / RFU, AHCTF1 / Fold change vs veh, AHCTF1 / RFU, TFRC / Fold change vs veh, TFRC / RFU, ZDHHC17 / Fold change vs veh, ZDHHC17 / RFU, NOM1 / Fold change vs veh, NOM1 / RFU, ARL8B / Fold change vs veh, ARL8B / RFU, ZBTB11 / Fold change vs veh, ZBTB11 / RFU, TAMM41 / Fold change vs veh, TAMM41 / RFU, KIAA1704 /// LOC100996395 / Fold change vs veh, KIAA1704 /// LOC100996395 / RFU, ING1 / Fold change vs veh, ING1 / RFU, TRMT61B / Fold change vs veh, TRMT61B / RFU, FUBP3 / Fold change vs veh, FUBP3 / RFU, TP53 / Fold change vs veh, TP53 / RFU, TNKS2 / Fold change vs veh, TNKS2 / RFU, ZFP14 / Fold change vs veh, ZFP14 / RFU, ACTR2 / Fold change vs veh, ACTR2 / RFU, PPP3R1 / Fold change vs veh, PPP3R1 / RFU, PIK3R1 / Fold change vs veh, PIK3R1 / RFU, HNRNPA1 / Fold change vs veh, HNRNPA1 / RFU, RNF170 / Fold change vs veh, RNF170 / RFU, ZNF28 / Fold change vs veh, ZNF28 / RFU, RNGTT / Fold change vs veh, RNGTT / RFU, OGT / Fold change vs veh, OGT / RFU, BRD1 / Fold change vs veh, BRD1 / RFU, MARS / Fold change vs veh, MARS / RFU, ZNF655 / Fold change vs veh, ZNF655 / RFU, FAHD1 / Fold change vs veh, FAHD1 / RFU, BDP1 / Fold change vs veh, BDP1 / RFU, LRRCC1 / Fold change vs veh, LRRCC1 / RFU, ARID1A / Fold change vs veh, ARID1A / RFU, ZNF146 / Fold change vs veh, ZNF146 / RFU, ZNF330 / Fold change vs veh, ZNF330 / RFU, GPN3 / Fold change vs veh, GPN3 / RFU, C9orf123 / Fold change vs veh, C9orf123 / RFU, N4BP2L2 / Fold change vs veh, N4BP2L2 / RFU, ARFIP1 / Fold change vs veh, ARFIP1 / RFU, FAM179B / Fold change vs veh, FAM179B / RFU, BCL10 / Fold change vs veh, BCL10 / RFU, UHRF1BP1L / Fold change vs veh, UHRF1BP1L / RFU, BET1 / Fold change vs veh, BET1 / RFU, CNOT2 / Fold change vs veh, CNOT2 / RFU, ZNF268 / Fold change vs veh, ZNF268 / Fold change vs veh, ZNF507 / RFU, DGCR2 / Fold change vs veh, DGCR2 / RFU, WDSUB1 / Fold change vs veh, WDSUB1 / Fold change vs veh, HSP90B1 /// MIR3652 / RFU, ADSS / Fold change vs veh, ADSS / RFU, GK / Fold change vs veh, GK / RFU, ZNF148 / Fold change vs veh, ZNF148 / RFU, TAF9 / Fold change vs veh, TAF9 / RFU, SLC1A5 / Fold change vs veh, SLC1A5 / RFU, SLMO2 / Fold change vs veh, SLMO2 / RFU, ABCC4 / Fold change vs veh, ABCC4 / RFU, LOC101060439 /// RAP1B / Fold change vs veh, LOC101060439 /// RAP1B / RFU, RFX7 / Fold change vs veh, RFX7 / RFU, GTPBP10 / Fold change vs veh, GTPBP10 / RFU, CNEP1R1 / Fold change vs veh, CNEP1R1 / RFU, BIVM-ERCC5 /// ERCC5 / Fold change vs veh, BIVM-ERCC5 /// ERCC5 / RFU, ILF3 / Fold change vs veh, ILF3 / RFU 11762660_at / Fold change /veh 11762660_at / RFU VCAN (11757783_s_at) / Fold change /veh VCAN (11757783_s_at) / RFU DDX43 (11728927_at) / Fold change /veh DDX43 (11728927_at) / RFU KRT8 (11758188_x_at) / Fold change /veh KRT8 (11758188_x_at) / RFU NKD1 (11759106_at) / Fold change /veh NKD1 (11759106_at) / RFU SRD5A1 (11742802_a_at) / Fold change /veh SRD5A1 (11742802_a_at) / RFU TPSAB1 /// TPSB2 (11721975_s_at) / Fold change /veh TPSAB1 /// TPSB2 (11721975_s_at) / RFU GSTM3 (11746129_a_at) / Fold change /veh GSTM3 (11746129_a_at) / RFU IL23R (11737362_x_at) / Fold change /veh IL23R (11737362_x_at) / RFU TMEM51 (11727254_a_at) / Fold change /veh TMEM51 (11727254_a_at) / RFU PIWIL2 (11732686_x_at) / Fold change /veh PIWIL2 (11732686_x_at) / RFU ORM1 (11744905_x_at) / Fold change /veh ORM1 (11744905_x_at) / RFU CCDC152 (11743942_at) / Fold change /veh CCDC152 (11743942_at) / RFU ECM1 (11717891_a_at) / Fold change /veh ECM1 (11717891_a_at) / RFU IL23R (11748794_a_at) / Fold change /veh IL23R (11748794_a_at) / RFU TNFAIP8L3 (11732012_x_at) / Fold change /veh TNFAIP8L3 (11732012_x_at) / RFU MBOAT4 (11741988_at) / Fold change /veh MBOAT4 (11741988_at) / RFU 11764193_at / Fold change /veh 11764193_at / RFU TMEM53 (11763286_at) / Fold change /veh TMEM53 (11763286_at) / RFU MAGEB2 (11727129_at) / Fold change /veh MAGEB2 (11727129_at) / RFU TMEM200A (11744735_a_at) / Fold change /veh TMEM200A (11744735_a_at) / RFU CCDC152 (11751479_a_at) / Fold change /veh CCDC152 (11751479_a_at) / RFU FAM211A (11726209_a_at) / Fold change /veh FAM211A (11726209_a_at) / RFU RGS16 (11746705_a_at) / Fold change /veh RGS16 (11746705_a_at) / RFU VCAN (11755009_s_at) / Fold change /veh VCAN (11755009_s_at) / RFU RHOB (11743442_s_at) / Fold change /veh RHOB (11743442_s_at) / RFU RGS16 (11720943_a_at) / Fold change /veh RGS16 (11720943_a_at) / RFU RGS16 (11720944_at) / Fold change /veh RGS16 (11720944_at) / RFU, VPS4B / Fold change vs veh, VPS4B / RFU, CREB1 / Fold change vs veh, CREB1 / RFU, DNAJC13 / Fold change vs veh, DNAJC13 / RFU, GNAQ / Fold change vs veh, GNAQ / RFU, CDK5R1 / Fold change vs veh, CDK5R1 / RFU, ZRANB3 / Fold change vs veh, ZRANB3 / RFU, CUL4A / Fold change vs veh, CUL4A / RFU, CCNY / Fold change vs veh, CCNY / RFU, UFL1 / Fold change vs veh, UFL1 / RFU, COG3 / Fold change vs veh, COG3 / RFU, DIAPH2 / Fold change vs veh, DIAPH2 / RFU, SKA2 / Fold change vs veh, SKA2 / RFU, AFF3 / Fold change vs veh, AFF3 / RFU, LMF1 / Fold change vs veh, LMF1 / RFU, IPO11 / Fold change vs veh, IPO11 / RFU, DFFB / Fold change vs veh, DFFB / RFU, FOXP1 / Fold change vs veh, FOXP1 / RFU, CARD8 / Fold change vs veh, CARD8 / RFU, STRN3 / Fold change vs veh, STRN3 / RFU, ADK / Fold change vs veh, ADK / RFU, RASSF2 / Fold change vs veh, RASSF2 / RFU, WIPF1 / Fold change vs veh, WIPF1 / RFU, LARP1B / Fold change vs veh, LARP1B / RFU, RASA1 / Fold change vs veh, RASA1 / RFU, RB1 / Fold change vs veh, RB1 / RFU, PPFIA1 / Fold change vs veh, PPFIA1 / RFU, MAT2A / Fold change vs veh, MAT2A / RFU, CCT5 / Fold change vs veh, CCT5 / RFU, WDR92 / Fold change vs veh, WDR92 / RFU, CUX1 / Fold change vs veh, CUX1 / RFU, TTC7A / Fold change vs veh, TTC7A / RFU, TMEM135 / Fold change vs veh, TMEM135 / RFU, DEPTOR / Fold change vs veh, DEPTOR / RFU, CPM / Fold change vs veh, CPM / RFU, DNAJB6 / Fold change vs veh, DNAJB6 / RFU, CACNA2D3 / Fold change vs veh, CACNA2D3 / RFU, DTX4 / Fold change vs veh, DTX4 / RFU, TFCP2 / Fold change vs veh, TFCP2 / RFU, GMCL1 /// GMCL1P1 / Fold change vs veh, GMCL1 /// GMCL1P1 / RFU, AEBP2 / Fold change vs veh, AEBP2 / RFU, SNHG1 /// SNORD22 /// SNORD25 /// SNORD26 /// SNORD27 /// SNORD28 /// SNORD29 /// SNORD31 / Fold change vs veh, SNHG1 /// SNORD22 /// SNORD25 /// SNORD26 /// SNORD27 /// SNORD28 /// SNORD29 /// SNORD31 / Fold change (Aza/veh), C12orf56 (ProbeSet 11735607_a_at) / Fold change (ACY-1035/veh), C12orf56 (ProbeSet 11735607_a_at) / Fold change (Aza/veh), FGFR1OP (ProbeSet 11751329_s_at) / Fold change (ACY-1035/veh), FGFR1OP (ProbeSet 11751329_s_at) / Fold change (Aza/veh), VPS36 (ProbeSet 11739960_a_at) / Fold change (ACY-1035/veh), VPS36 (ProbeSet 11739960_a_at) / RFU SYPL1 (11715823_x_at) / Fold change /veh SYPL1 (11715823_x_at) / RFU IGFBP7 (11715501_s_at) / Fold change /veh IGFBP7 (11715501_s_at) / RFU REEP3 (11722064_at) / Fold change /veh REEP3 (11722064_at) / RFU IGLL1 (11728026_x_at) / Fold change /veh IGLL1 (11728026_x_at): dose or concentration left out as unconfirmed
Details: MV-4-11 cells, 48 hours

Nc1ncn([C@@H]2O[C@H](CO)[C@@H](O)[C@H]2O)c(=O)n1 [azacitidine]
RFU DDX43 (11728927_at): 12.02 RFU
